Among the data in ChEMBL document CHEMBL2390930, “Design, synthesis and evaluation of 1,2-benzisothiazol-3-one derivatives as potent caspase-3 inhibitors” (Bioorg Med Chem, 2013) are IC50 values, retold here.

pIC50: −log10 of the molar value. Where only a bound is given, the exact number is not on record here.

A word on the pIC50: it is the IC50 on a negative log10 scale, so that one unit is a factor of ten.

This assay addresses T1, Caspase-3 (Homo sapiens, UniProt P42574).
T1 sequence (P42574 whole entry): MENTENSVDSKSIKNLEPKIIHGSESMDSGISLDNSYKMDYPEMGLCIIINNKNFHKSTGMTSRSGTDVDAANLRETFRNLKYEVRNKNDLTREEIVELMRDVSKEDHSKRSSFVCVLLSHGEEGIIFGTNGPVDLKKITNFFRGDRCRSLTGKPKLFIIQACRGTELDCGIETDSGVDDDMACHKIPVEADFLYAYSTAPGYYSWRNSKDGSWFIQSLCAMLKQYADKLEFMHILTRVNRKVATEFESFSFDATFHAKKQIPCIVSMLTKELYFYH
As to the kind of experiment: Inhibition of recombinant human caspase-3 using Ac-LDEVD-AMC as substrate assessed as accumulation of 7-AMC incubated for 10 mins followed by substrate addition measured for 10 mins by fluorimetric analysis.
Consider `O=C(NCc1ccccc1)n1sc2ccccc2c1=O`, for which the pIC50 was 7.07.

Turning to `Cn1sc2ccccc2c1=O`, the pIC50 was 4.37.

Turning to `Cc1ccc(-n2sc3ccccc3c2=O)cc1`, the pIC50 was 6.33.

In the case of `O=c1c2ccccc2sn1-c1ccccc1`, the negative-log IC50 (pIC50) is 6.27.

As to `O=C(Nc1ccc(I)cc1)n1sc2ccccc2c1=O`, the pIC50 is less than 4.00.
